Measurements reported in patent US7973047B2, “Beta-Secretase modulators and methods of use” (Amgen Inc., priority 2010, dated 2011).
Like-named read-outs stand apart in the source and are kept apart here.

Tested on: Aβ40 in conditioned medium of cells stably expressing Amyloid Precursor Protein (APP)
Experiment: BACE cell-based assay: Aβ40 in conditioned medium by sandwich ELISA
Conditions: unit inferred, read-out: Cell Assay
Procedure: The cell-based assay measures inhibition or reduction of Aβ40 in conditioned medium of test compound treated cells expressing amyloid precursor protein.
Cells stably expressing Amyloid Precursor Protein (APP) were plated at a density of 40K cells/well in 96 well plates (Costar). The cells were cultivated for 24 hours at 37° C. and 5% CO2 in DMEM supplemented with 10% FBS. The test compounds were then added to cells in 10-point dose response concentrations with the starting concentration being either 100 μM or 10 μM. The compounds were diluted from stock solutions in DMSO and the final DMSO concentration of the test compounds on cells was 0.1%. After 24 h of incubation with the test compounds the supernatant conditioned media was collected and the Aβ40 levels were determined using a sandwich ELISA. The ICso of the compound was calculated from the percent of control or percent inhibition of Aβ40 as a function of the concentration of the test compound.
The sandwich ELISA to detect Aβ40 was performed in 96 well microtiter plates, which were pre-treated with goat anti-rabbit IgG (Pierce). The capture and detecting antibody pair that were used to detect Aβ40 from cell supernatants were affinity purified pAb40 (Biosource) and biotinylated 6E10 (Signet Labs Inc.), respectively. The optimal concentration for the pAb40 antibody was 3 μg/ml in Superblock/TBS (Pierce) that was supplemented with 0.05% Tween 20 (Sigma).
Cellular supernatants were incubated with the capture antibody for 3 h at 4° C., followed by 3 wash steps in TBS-tween (0.05%). The detecting antibody incubation was for 2 h at 4° C., again followed by the wash steps as described previously. The final readout of the ELISA is Time-Resolved Fluorescence (counts per minute) using Delfia reagents Streptavidin-Europium and Enhancement solutions (Perkin Elmer) and the Victor 2 multilabel counter (Perkin Elmer).

[1] = cell based assay data of Table 4

Row | SMILES | IC50 [1] [µM] | IC50 (cell based assay data, Table 4) [µM]
1 | CC(=O)N[C@@H](Cc1cc(F)cc(F)c1)[C@H](O)CN[C@H]1CC2(CCC2)Nc2ccc(CC(C)(C)C)cc21 [compound 560, N-((1S,2R)-1-((3,5-difluorophenyl)methyl)-3-(((4′S)-6′-(2,2-dimethylpropyl)-3′,4′-dihydro-1′H-spiro[cyclobutane-1,2′-quinolin]-4′-yl)amino)-2-hydroxypropyl)acetamide] | 0.0117 | –
2 | CC(=O)N[C@@H](Cc1cc(F)cc(F)c1)[C@@H](O)CN[C@H]1CC2(CCC2)Oc2c1cc(Cl)cc2-n1cccn1 [compound 786] | – | 1.37
3 | CCNc1nc(CC(C)(C)C)cc2c1OC1(CCC1)C[C@@H]2NC[C@@H](O)[C@H](Cc1cccc(F)c1)NC(C)=O [compound 591] | 0.00298 | –
4 | COC1CN(c2nc(CC(C)(C)C)cc3c2OC2(CCC2)C[C@@H]3NC[C@@H](O)[C@H](Cc2cccc(F)c2)NC(C)=O)C1 [compound 604] | 0.00579 | –
5 | CC(=O)N[C@@H](Cc1cc(F)cc(F)c1)[C@H](O)CN[C@H]1CC2(CCC2)Oc2ccc(-n3ccnc3)cc21 [compound 782] | – | 0.0816
6 | CN(C)CC(=O)N[C@@H](Cc1cccc(C#N)c1)[C@H](O)CN[C@H]1CC(C)(C)Oc2ccc(Br)cc21 [compound 528] | 1.12 | –
7 | CC(=O)N[C@@H](Cc1c(F)cc(F)cc1F)[C@H](O)CN[C@H]1CC2(CCC2)Oc2ncc(CC(C)C)cc21 [compound 815] | – | 0.224
8 | CC(=O)N[C@@H](Cc1ccccc1)[C@H](O)CN[C@H]1CC2(CCC2)Oc2c1cc(CC(C)(C)C)nc2N1CCCC1 [compound 755] | – | 0.00649
9 | C=CC[C@H](NC(C)=O)[C@H](O)CN[C@H]1CC2(CCC2)Oc2ncc(CC(C)(C)F)cc21 [compound 741, N-((1S)-1-((1R)-2-(((4′S)-6′-(2-fluoro-2-methylpropyl)-3′,4′-dihydrospiro[cyclobutane-1,2′-pyrano[2,3-b]pyridin]-4′-yl)amino)-1-hydroxyethyl)-3-buten-1-yl)acetamide] | – | 0.193
10 | COCC(=O)N[C@@H](Cc1cccc(C#N)c1)[C@H](O)CN[C@H]1CC2(CCC2)Oc2ccc(C(=O)OC)cc21 [compound 730] | – | 1.02
11 | CCc1cnc2c(c1)[C@@H](NC[C@@H](O)[C@H](Cc1cc(F)cc(F)c1)NC(C)=O)CC1(CCC1)O2 [compound 874] | – | 0.0121
12 | COC(=O)N[C@@H](Cc1ccccc1)[C@H](O)CN[C@H]1CC2(CCC2)Oc2ncc(CC(C)(C)C)cc21 [compound 873] | – | 0.0206
13 | CC(=O)N[C@@H](Cc1cc(F)cc(F)c1)[C@H](O)CN[C@H]1CC2(CCC2)Oc2nc(F)c(CC(C)(C)C)cc21 [compound 659] | 0.00642 | –
14 | CC(=O)N[C@@H](Cc1cccc(F)c1)[C@H](O)CN[C@H]1CC2(CCC2)Oc2c1cc(CC(C)(C)C)nc2NC1CC1 [compound 602] | 0.00289 | –
15 | CC(=O)N[C@@H](Cc1ccc(F)c(Br)c1)[C@H](O)CN[C@H]1CC2(CCC2)Nc2ccc(CC(C)(C)C)cc21 [compound 562, N-((1S,2R)-1-((3-bromo-4-fluorophenyl)methyl)-3-(((4′S)-6′-(2,2-dimethylpropyl)-3′,4′-dihydro-1′H-spiro[cyclobutane-1,2′-quinolin]-4′-yl)amino)-2-hydroxypropyl)acetamide] | 0.141 | –
16 | CC(=O)N[C@@H](Cc1ccccc1)[C@H](O)CN[C@H]1CC2(CCC2)Oc2ncc(C(O)C(C)C(F)(F)F)cc21 (some centres unmarked) [compound 865] | – | 1.93
17 | CC(=O)N[C@@H](CCC(F)(F)F)[C@H](O)CN[C@H]1CC2(CCC2)Oc2ncc(CC(C)(C)C)cc21 [compound 738, N-((1S)-1-((1R)-2-(((4′S)-6′-(2,2-dimethylpropyl)-3′,4′-dihydrospiro[cyclobutane-1,2′-pyrano[2,3-b]pyridin]-4′-yl)amino)-1-hydroxyethyl)-4,4,4-trifluorobutyl)acetamide] | – | 1.42
18 | CC(=O)N[C@@H](Cc1ccc(F)cc1)[C@H](O)CN[C@H]1CC2(CCC2)Oc2cc(F)c(-n3cccn3)cc21 [compound 808] | – | 1.94
19 | CC(=O)N[C@@H](Cc1cc(F)cc(F)c1)[C@H](O)CN[C@H]1CC2(CCC2)Oc2ccc(-n3cccn3)cc21 [compound 777] | – | 0.0412
20 | CC(=O)N[C@@H](Cc1cccc(F)c1)[C@H](O)CN[C@H]1CC2(CCC2)Oc2c1cc(CC(C)(C)C)nc2N [compound 605] | 0.00156 | –
21 | CC(=O)N[C@@H](Cc1cc(F)cc(F)c1)[C@H](O)CN[C@H]1CC2(CCC2)Oc2ncc(Br)cc21 [compound 745] | – | 0.0331
22 | CC(=O)N[C@@H](Cc1cc(F)cc(F)c1)[C@H](O)CN[C@H]1CC2(CCC2)Oc2ccc(Br)cc21 [compound 774] | – | 0.0882
23 | CC(=O)N[C@@H](Cc1ccccc1)[C@H](O)CN[C@H]1CC2(CCC2)Oc2ncc(C(F)C(C)C(F)(F)F)cc21 (some centres unmarked) [compound 862] | – | 0.0741

Further lines, results first:

Row | IC50 [1] [µM] | IC50 (cell based assay data, Table 4) [µM] | SMILES
24 | 0.00813 | – | CC(=O)N[C@@H](Cc1ccc(F)cc1)[C@H](O)CN[C@H]1CC2(CCC2)Oc2ncc(CC(C)(C)C)cc21 [compound 568]
25 | – | 0.0389 | CC(=O)N[C@@H](Cc1cccc(F)c1F)[C@H](O)CN[C@H]1C[C@]2(C[C@@H](C)C2)Oc2ncc(CC(C)(C)C)cc21 [compound 768, N-((1S,2R)-1-((2,3-difluorophenyl)methyl)-3-(((1r,3S,4′S)-6′-(2,2-dimethylpropyl)-3-methyl-3′,4′-dihydrospiro[cyclobutane-1,2′-pyrano[2,3-b]pyridin]-4′-yl)amino)-2-hydroxypropyl)acetamide]
26 | – | 0.00549 | CC(=O)N[C@@H](Cc1ccc2c(c1)OCO2)[C@H](O)CN[C@H]1CC2(CCC2)Oc2ncc(CC(C)(C)C)cc21 [compound 839]
27 | – | 0.0108 | COC(=O)N[C@@H](Cc1cc(F)cc(F)c1)[C@H](O)CN[C@H]1CC2(CCC2)Oc2ncc(CC(C)(C)C)cc21 [compound 876]
28 | 0.0722 | – | CC(=O)N[C@@H](Cc1ccc(Cl)cc1)[C@H](O)CN[C@H]1C[C@]2(C[C@H](C)C2)Oc2ncc(CC(C)C)cc21 [compound 618, N-((1S,2R)-1-((4-chlorophenyl)methyl)-2-hydroxy-3-(((1s,3R,4′S)-3-methyl-6′-(2-methylpropyl)-3′,4′-dihydrospiro[cyclobutane-1,2′-pyrano[2,3-b]pyridin]-4′-yl)amino)propyl)acetamide]
29 | 0.00682 | – | CC(=O)N[C@@H](Cc1nc(Cl)cs1)[C@H](O)CN[C@H]1CC2(CCC2)Oc2ncc(CC(C)(C)C)cc21 [compound 641, N-((1S,2R)-1-((4-chloro-1,3-thiazol-2-yl)methyl)-3-(((4′S)-6′-(2,2-dimethylpropyl)-3′,4′-dihydrospiro[cyclobutane-1,2′-pyrano[2,3-b]pyridin]-4′-yl)amino)-2-hydroxypropyl)acetamide]
30 | 0.0205 | – | CC(=O)N[C@@H](Cc1ccc(F)cc1)[C@H](O)CN[C@H]1C[C@@]2(CCOC2)Oc2ncc(CC(C)(C)C)cc21 [compound 671]
31 | 0.062 | – | CC(=O)N[C@@H](Cc1ccc(Cl)cc1)[C@H](O)CN[C@H]1C[C@]2(CC[C@@H]2C)Oc2ncc(CC(C)(C)C)cc21 [compound 620]
32 | – | 0.0563 | CC(=O)N[C@@H](Cc1ccc(F)c(F)c1F)[C@H](O)CN[C@H]1CC2(CCC2)Oc2ncc(CC(C)(C)C)cc21 [compound 814]
33 | 0.0142 | – | CC(=O)N[C@@H](Cc1cscn1)[C@H](O)CN[C@H]1CC2(CCC2)Oc2ncc(CC(C)(C)C)cc21 [compound 634, N-((1S,2R)-3-(((4′S)-6′-(2,2-dimethylpropyl)-3′,4′-dihydrospiro[cyclobutane-1,2′-pyrano[2,3-b]pyridin]-4′-yl)amino)-2-hydroxy-1-(1,3-thiazol-4-ylmethyl)propyl)acetamide]
34 | 0.0382 | – | CC(=O)N[C@@H](Cc1ccc(F)cc1)[C@H](O)CN[C@H]1C[C@]2(CC[C@H]2C)Oc2ncc(CC(C)(C)C)cc21 [compound 623]
35 | 0.00203 | – | CC(=O)N[C@@H](Cc1cccc(C#N)c1)[C@H](O)CN[C@H]1CC2(CCC2)Oc2ncc(CC(C)(C)C)cc21 [compound 540, N-((1S,2R)-1-((3-cyanophenyl)methyl)-3-(((4′S)-6′-(2,2-dimethylpropyl)-3′,4′-dihydrospiro[cyclobutane-1,2′-pyrano[2,3-b]pyridin]-4′-yl)amino)-2-hydroxypropyl)acetamide]
36 | 0.00167 | – | CC(=O)N[C@@H](Cc1cccc(F)c1)[C@H](O)CN[C@H]1CC(C)(C)Oc2ncc(CC(C)(C)C)cc21 [compound 546]
37 | 0.00801 | – | CC(=O)N[C@@H](Cc1ccc(F)c(N(C)C)c1)[C@H](O)CN[C@H]1CC2(CCC2)Oc2ncc(CC(C)(C)C)cc21 [compound 709]
38 | – | 0.00626 | CC(=O)N[C@@H](Cc1cccc(Cl)c1F)[C@H](O)CN[C@H]1CC2(CCC2)Oc2ncc(CC(C)(C)C)cc21 [compound 868]
39 | 0.111 | – | CC(=O)N[C@@H](Cc1ccc(F)cc1)[C@@H](O)CN[C@H]1CC2(CCC2)Oc2ncc(CC(C)(C)F)cc21 [compound 574]
40 | – | 0.0147 | CC(=O)N[C@@H](Cc1ccc(F)c(Cl)c1)[C@H](O)CN[C@H]1CC2(CCC2)Oc2ncc(CC(C)(C)F)cc21 [compound 836]
41 | 0.0184 | – | CC(=O)N[C@@H](Cc1ccc(F)cc1F)[C@H](O)CN[C@H]1CC2(CCC2)Oc2ncc(CC(C)(C)C)cc21 [compound 704]
